# Measured values from patent US10894797B2, “Fused tricyclic ring derivatives as SRC homology-2 phosphatase inhibitors” (Nikang Therapuetics, Inc., priority 2018, dated 2021).
# Target: SHP2 (Homo sapiens (Human), UniProt Q06124)
# Assay: SHP2 allosteric inhibition assay (DiFMUP substrate, bisphos-IRS1 peptide activation)
# Format: biochemical
# Details: 0.33 nM SHP2, 0.5 μM bisphos-IRS1 peptide, 100 uM DiFMUP, room temperature
# Method: At the basal state, SHP2 is auto-inhibited and access of substrates to the catalytic site is blocked by the […] interactions between the SH2 domains and the PTP domain. When bis-tyrosyl-phosphorylated peptides bind to SH2 domain of SHP2, the PTP domain becomes available for substrate recognition and reaction catalysis and SHP2 is allosterically activated. SHP2 catalytic activity can be measured using a fluorogenic artificial substrate DiFMUP.
# The phosphatase reactions were carried out at room temperature in 384-well black polystyrene plates (Greiner Bio-One, Cat #784076) using assay buffers containing 60 mM HEPES, pH 7.2, 75 mM NaCl, 75 mM KCl, 1 mM EDTA, 0.05% P-20, and 5 mM DTT.
# 0.33 nM of SHP2 was co-incubated with of 0.5 μM of bisphos-IRS 1 peptide (sequence: H2N-LN(pY)IDLDLV(dPEG8)LST(pY)ASINFQK-amide) and various concentrations of compounds for 30-60 min at room temperature. Then the reaction was initiated by addition of the surrogate substrate DiFMUP (Invitrogen, Cat #D6567, 100 uM final).
# The real-time conversion of DiFMUP to DiFMU (6,8-difluoro-7-hydroxyl-4-methyl-coumarin) was measured every 5 min for 30 min using a microplate reader (CLARIOstar, BMG Labtech) with excitation and emission wavelengths of 340 nm and 450 nm, respectively. Initial reaction rates were determined by linear fitting of the data and the inhibitor dose response curves were analyzed using normalized IC50 regression curve fitting with control-based normalization.
SMILES,IC50 [nM],Shp2 IC50(nM)
"COCCOC[C@H]1C[C@H]2COc3c(Sc4cnc(N5CCC6(CC5)CO[C@@H](C)[C@H]6N)c(CO)n4)ccnc3N2C1 [Compound 32, (3-((3S,4S)-4-amino-3-methyl-2-oxa-8-azaspiro[4.5]decan-8-yl)-6-(((6aS,8S)-8-((2-methoxyethoxy)methyl)-6a,7,8,9-tetrahydro-6H-pyrido[3,2-b]pyrrolo[1,2-d][1,4]oxazin-4-yl)thio)pyrazin-2-yl)methanol]",4,–
"COC[C@H]1C[C@H]2COc3c(Sc4cnc(N5CCC6(CC5)Cc5ncccc5[C@H]6N)c(CO)n4)ccnc3N2C1 [Compound 36, (3-((S)-5-amino-5,7-dihydrospiro[cyclopenta[b]pyridine-6,4′-piperidin]-1′-yl)-6-(((6aS,8S)-8-(methoxymethyl)-6a,7,8,9-tetrahydro-6H-pyrido[3,2-b]pyrrolo[1,2-d][1,4]oxazin-4-yl)thio)pyrazin-2-yl)methanol]",–,One of 36 and 37 is 2.7 and the other is 4.2
"COC[C@@H]1C[C@H]2COc3c(Sc4cnc(N5CCC6(CC5)Cc5ncccc5[C@H]6N)c(CO)n4)ccnc3N2C1 [Compound 37, (3-((S)-5-amino-5,7-dihydrospiro[cyclopenta[b]pyridine-6,4′-piperidin]-1′-yl)-6-(((6aS,8R)-8-(methoxymethyl)-6a,7,8,9-tetrahydro-6H-pyrido[3,2-b]pyrrolo[1,2-d][1,4]oxazin-4-yl)thio)pyrazin-2-yl)methanol]",–,One of 36 and 37 is 2.7 and the other is 4.2
"C[C@@H]1OCC2(CCN(c3ncc(Sc4ccnc5c4OC[C@@H]4C[C@@H](O)CN54)nc3CO)CC2)[C@@H]1N [Compound 8, (6aS,8R)-4-((5-((3 S,4S)-4-amino-3-methyl-2-oxa-8-azaspiro[4.5]decan-8-yl)-6-(hydroxymethyl)pyrazin-2-yl)thio)-6a,7,8,9-tetrahydro-6H-pyrido[3,2-b]pyrrolo[1,2-d][1,4]oxazin-8-ol]",8,–
"COCOC[C@H]1C[C@H]2COc3c(Sc4ncc(N5CCC6(CC5)Cc5ncccc5[C@H]6N)nc4N)ccnc3N2C1 [Compound 47, (S)-1′-(6-amino-5-(((6aS,8S)-8-((methoxymethoxy)methyl)-6a,7,8,9-tetrahydro-6H-pyrido[3,2-b]pyrrolo[1,2-d][1,4]oxazin-4-yl)thio)pyrazin-2-yl)-5,7-dihydrospiro[cyclopenta[b]pyridine-6,4′-piperidin]-5-amine]",8.4,–
"C[C@@H]1OCC2(CCN(c3ncc(Sc4ccnc5c4OCC4CS(=O)(=O)CCN54)nc3CO)CC2)[C@@H]1N (stereo partly drawn) [Compound 28, 4-((5-((3S,4S)-4-amino-3-methyl-2-oxa-8-azaspiro[4.5]decan-8-yl)-6-(hydroxymethyl)pyrazin-2-yl)thio)-6a,7,9,10-tetrahydro-6H-pyrido[3,2-b][1,4]thiazino[4,3-d][1,4]oxazine 8,8-dioxide]",13,–
"C[C@@H]1OCC2(CCN(c3ncc(Sc4ccnc5c4OC[C@@H]4C[C@H](OC6COC6)CN54)nc3CO)CC2)[C@@H]1N [Compound 13, (3-((3S,4S)-4-amino-3-methyl-2-oxa-8-azaspiro[4.5]decan-8-yl)-6-(((6aS,8S)-8-(oxetan-3-yloxy)-6a,7,8,9-tetrahydro-6H-pyrido[3,2-b]pyrrolo[1,2-d][1,4]oxazin-4-yl)thio)pyrazin-2-yl)methanol]",8,–
"C[C@@H]1OCC2(CCN(c3ncc(Sc4ccnc5c4OC[C@@H]4C[C@@H](n6cccn6)CN54)nc3CO)CC2)[C@@H]1N [Compound 25, (6-(((6aS,8R)-8-(1H-pyrazol-1-yl)-6a,7,8,9-tetrahydro-6H-pyrido[3,2-b]-pyrrolo[1,2-d][1,4]oxazin-4-yl)thio)-3-((3 S,4S)-4-amino-3-methyl-2-oxa-8-azaspiro[4.5]decan-8-yl)pyrazin-2-yl)methanol]",11,–

# More lines, main results first:
IC50 [nM],SMILES,Shp2 IC50(nM)
7,"COCOC[C@H]1C[C@H]2COc3c(Sc4cnc(N5CCC6(CC5)COC5(CCC5)[C@H]6N)c(CO)n4)ccnc3N2C1 [Compound 39, (3-((S)-5-amino-13-oxa-9-azadispiro[3.1.5^6.2^4]tridecan-9-yl)-6-(((6aS,8S)-8-((methoxymethoxy)methyl)-6a,7,8,9-tetrahydro-6H-pyrido[3,2-b]pyrrolo[1,2-d][1,4]oxazin-4-yl)thio)pyrazin-2-yl)methanol]",–
5.9,"COCOCOC[C@H]1C[C@H]2COc3c(Sc4cnc(N5CCC6(CC5)CO[C@@H](C)[C@H]6N)c(CO)n4)ccnc3N2C1 [Compound 40, (3-((3 S,4S)-4-Amino-3-methyl-2-oxa-8-azaspiro[4.5]decan-8-yl)-6-(((6aS,8S)-8-(((methoxymethoxy)methoxy)methyl)-6a,7,8,9-tetrahydro-6H-pyrido[3,2-b]pyrrolo[1,2-d][1,4]oxazin-4-yl)thio)pyrazin-2-yl)methanol]",–
5,"C[C@@H]1OCC2(CCN(c3ncc(Sc4ccnc5c4OC[C@@H]4C[C@H](CO)CN54)nc3CO)CC2)[C@@H]1N [Compound 41, (3-((3S,4S)-4-amino-3-methyl-2-oxa-8-azaspiro[4.5]decan-8-yl)-6-(((6aS,8S)-8-(hydroxymethyl)-6a,7,8,9-tetrahydro-6H-pyrido[3,2-b]pyrrolo[1,2-d][1,4]oxazin-4-yl)thio)pyrazin-2-yl)methanol]",–
6,"C[C@@H]1OCC2(CCN(c3ncc(Sc4ccnc5c4OC[C@@H]4C[C@H](OC(N)=O)CN54)nc3CO)CC2)[C@@H]1N [Compound 22, (6aS,8S)-4-((5-((3S,4S)-4-amino-3-methyl-2-oxa-8-azaspiro[4.5]decan-8-yl)-6-(hydroxymethyl)pyrazin-2-yl)thio)-6a,7,8,9-tetrahydro-6H-pyrido[3,2-b]pyrrolo[1,2-d]-[1,4]oxazin-8-yl carbamate]",–
3.3,"COCOC[C@H]1C[C@H]2COc3c(Sc4cnc(N5CCC6(CC5)Cc5ncccc5[C@H]6N)c(CO)n4)ccnc3N2C1 [Compound 48, (3-((S)-5-amino-5,7-dihydrospiro[cyclopenta[b]pyridine-6,4′-piperidin]-1′-yl)-6-(((6aS,8S)-8-((methoxymethoxy)methyl)-6a,7,8,9-tetrahydro-6H-pyrido[3,2-b]pyrrolo-[1,2-d][1,4]oxazin-4-yl)thio)pyrazin-2-yl)methanol]",–
3.5,"COCOC[C@@H]1C[C@H]2COc3c(Sc4cnc(N5CCC6(CC5)CO[C@@H](C)[C@H]6N)c(CO)n4)ccnc3N2C1 [Compound 50, (3-((3S,4S)-4-amino-3-methyl-2-oxa-8-azaspiro[4.5]decan-8-yl)-6-(((6aS,8R)-8-((methoxymethoxy)methyl)-6a,7,8,9-tetrahydro-6H-pyrido[3,2-b]pyrrolo[1,2-d][1,4]oxazin-4-yl)thio)pyrazin-2-yl)methanol]",–
3.6,"COC[C@H]1C[C@H]2COc3c(Sc4cnc(N5CCC6(CC5)CO[C@@H](C)[C@H]6N)c(CO)n4)ccnc3N2C1 [Compound 29, (3-((3S,4S)-4-amino-3-methyl-2-oxa-8-azaspiro[4.5]decan-8-yl)-6-(((6aS,8S)-8-(methoxymethyl)-6a,7,8,9-tetrahydro-6H-pyrido[3,2-b]pyrrolo[1,2-d][1,4]oxazin-4-yl)thio)pyrazin-2-yl)methanol]",–
3.8,"COC[C@@H]1C[C@H]2COc3c(Sc4cnc(N5CCC6(CC5)CO[C@@H](C)[C@H]6N)c(CO)n4)ccnc3N2C1 [Compound 30, (3-((3S,4S)-4-amino-3-methyl-2-oxa-8-azaspiro[4.5]decan-8-yl)-6-(((6aS,8R)-8-(methoxymethyl)-6a,7,8,9-tetrahydro-6H-pyrido[3,2-b]pyrrolo[1,2-d][1,4]oxazin-4-yl)thio)pyrazin-2-yl)methanol]",–
